Measured values published in ChEMBL document CHEMBL1201862, “PubChem BioAssay data set” (2004).
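Briefly, cells in 96-well plates were exposed to five compound concentrations for 48 h, and endpoints were estimated by linear interpolation. At the GI50, growth is halved.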 Active and inactive are the calls of the source. No stated cut-off is given here; in the data, active = GI50 up to about 1.1 µM and inactive = higher.

What was measured:
Experiment in all cases: growth of human tumour cells (NCI), 48 h
A549 = test system: A549
COLO 205 = test system: COLO 205
EKVX = test system: EKVX
HCC 2998 = test system: HCC 2998
HL-60 = test system: HL-60
HOP-62 = test system: HOP-62
HT-29 = test system: HT-29
MOLT-4 = test system: MOLT-4
NCI-H23 = test system: NCI-H23
NCI-H460 = test system: NCI-H460
OVCAR-5 = test system: OVCAR-5
SF-268 = test system: SF-268
SF-295 = test system: SF-295
SF-539 = test system: SF-539
SK-MEL-2 = test system: SK-MEL-2
SNB-19 = test system: SNB-19
U-251 = test system: U-251
CAKI-1 = test system: CAKI-1
IGROV-1 = test system: IGROV-1

Measured: GI50

Cc1nc2ccc(C(F)(F)F)cc2nc1Nc1ccc(Cl)c(Cl)c1
inactive: A549 7.14 µM | COLO 205 3.94 µM | EKVX > 10 µM | HCC 2998 3.72 µM | HL-60 5.62 µM | HOP-62 16 µM | HT-29 4.68 µM | MOLT-4 7 µM | NCI-H23 12.6 µM | NCI-H460 2.65 µM | OVCAR-5 15.4 µM | SF-268 13.8 µM | SF-295 3.4 µM | SF-539 14.1 µM | SK-MEL-2 14.3 µM | SNB-19 14.1 µM | U-251 6.46 µM

COC(=O)/C=c1\s/c(=C\C(=O)OC)c2ccccc12
inactive: A549 > 100 µM | CAKI-1 > 100 µM | COLO 205 > 100 µM | EKVX > 100 µM | HCC 2998 > 100 µM | HL-60 > 100 µM | HT-29 > 100 µM | IGROV-1 > 100 µM | MOLT-4 > 100 µM | NCI-H23 > 100 µM | OVCAR-5 > 100 µM | SF-268 > 100 µM | SF-295 > 100 µM | SF-539 > 100 µM | SK-MEL-2 > 100 µM | SNB-19 > 100 µM | U-251 > 100 µM

CC(=O)Nc1cccc2[nH]c3ccccc3c(=O)c12
inactive: A549 21.6 µM | CAKI-1 12.2 µM | COLO 205 16.3 µM | EKVX 25.1 µM | HL-60 12.6 µM | HT-29 17 µM | IGROV-1 26.4 µM | MOLT-4 17.1 µM | NCI-H23 12.3 µM | NCI-H460 17 µM | OVCAR-5 20.6 µM | SF-268 26.7 µM | SF-295 19.5 µM | SF-539 21.6 µM | SK-MEL-2 18.6 µM | SNB-19 23.2 µM | U-251 24.1 µM

O=C(Nc1nc2ncn(CCO)c2c(=O)[nH]1)c1ccccc1
inactive: A549 > 100 µM | CAKI-1 > 100 µM | COLO 205 > 100 µM | EKVX > 100 µM | HL-60 > 100 µM | HOP-62 > 100 µM | HT-29 > 100 µM | IGROV-1 > 100 µM | NCI-H460 > 100 µM | OVCAR-5 > 100 µM | SF-268 > 100 µM | SF-295 > 100 µM | SF-539 > 100 µM | SK-MEL-2 > 100 µM | SNB-19 > 100 µM | U-251 > 100 µM

NC(=O)c1ccccc1NC(=O)C(=O)Nc1n[nH]c(N)n1
inactive: A549 > 100 µM | CAKI-1 > 100 µM | COLO 205 > 100 µM | EKVX > 100 µM | HCC 2998 > 100 µM | HL-60 > 100 µM | HOP-62 > 100 µM | HT-29 > 100 µM | IGROV-1 > 100 µM | MOLT-4 > 100 µM | NCI-H23 > 100 µM | NCI-H460 > 100 µM | OVCAR-5 > 100 µM | SF-295 > 100 µM | SF-539 > 100 µM | SK-MEL-2 > 100 µM | SNB-19 > 100 µM | U-251 > 100 µM

O=C(NCCNCCO)N/N=C/c1cccc([N+](=O)[O-])c1
inactive: A549 > 100 µM | CAKI-1 > 100 µM | COLO 205 > 100 µM | HL-60 > 100 µM | HOP-62 > 100 µM | HT-29 > 100 µM | IGROV-1 > 100 µM | MOLT-4 > 100 µM | NCI-H23 > 100 µM | NCI-H460 > 100 µM | OVCAR-5 > 100 µM | SF-268 > 100 µM | SF-295 > 100 µM | SF-539 > 100 µM | SK-MEL-2 > 100 µM | U-251 > 100 µM

CC1CCC(=O)C(C(O)CC2CC(=O)N(c3ccccc3)C(=O)C2)C1 (configuration not stated)
inactive: A549 > 100 µM | CAKI-1 > 100 µM | COLO 205 > 100 µM | EKVX > 100 µM | HCC 2998 > 100 µM | HL-60 > 100 µM | HOP-62 > 100 µM | HT-29 > 100 µM | IGROV-1 > 100 µM | MOLT-4 > 100 µM | NCI-H23 > 100 µM | NCI-H460 > 100 µM | OVCAR-5 > 100 µM | SF-268 > 100 µM | SF-295 > 100 µM | SF-539 > 100 µM | SNB-19 > 100 µM | U-251 > 100 µM

Cc1cc(N(CCC#N)CCC#N)ccc1/N=N/c1cc(Cl)ccc1Cl
inactive: A549 19.2 µM | CAKI-1 3.5 µM | COLO 205 2.04 µM | EKVX 13.6 µM | HCC 2998 16.6 µM | HL-60 3.39 µM | HOP-62 19.5 µM | HT-29 2.64 µM | IGROV-1 15.1 µM | MOLT-4 5.13 µM | NCI-H23 13.4 µM | OVCAR-5 14.4 µM | SF-268 15.6 µM | SF-295 19.6 µM | SF-539 6.28 µM | SK-MEL-2 17.3 µM | SNB-19 17.5 µM | U-251 18.3 µM

C[C@]12CCC(=O)C=C1CC[C@@H]1C2CC[C@]2(C)NC(=O)C(C#N)CC12 (some centres not stated)
inactive: A549 > 100 µM | CAKI-1 > 100 µM | HCC 2998 > 100 µM | HL-60 > 100 µM | HOP-62 39.6 µM | HT-29 30.8 µM | IGROV-1 > 100 µM | MOLT-4 > 100 µM | NCI-H23 > 100 µM | NCI-H460 > 100 µM | OVCAR-5 > 100 µM | SF-295 > 100 µM | SF-539 > 100 µM | SK-MEL-2 > 100 µM | U-251 > 100 µM

COc1ccc(C(c2ccc(C(C)C)cc(=O)c2O)c2c(O)cc3oc(-c4ccccc4)cc(=O)c3c2O)cc1 (configuration not stated)
inactive: A549 3.35 µM | CAKI-1 9.04 µM | COLO 205 9.79 µM | EKVX 12.6 µM | HCC 2998 3.58 µM | HL-60 4.4 µM | HOP-62 2.07 µM | HT-29 17.7 µM | IGROV-1 3.91 µM | MOLT-4 5.73 µM | NCI-H23 4.79 µM | NCI-H460 3.37 µM | SF-295 4.93 µM | SF-539 3.05 µM | SNB-19 4.14 µM | U-251 6.43 µM

C#C[C@H](CCCC)OC(=O)N[C@H](C)c1ccccc1
inactive: A549 36.1 µM | CAKI-1 52.6 µM | COLO 205 21.7 µM | EKVX 50.6 µM | HL-60 17.5 µM | HOP-62 > 100 µM | HT-29 40.2 µM | IGROV-1 75.3 µM | MOLT-4 31.3 µM | NCI-H460 58.2 µM | OVCAR-5 48 µM | SF-268 63.7 µM | SF-295 75 µM | SK-MEL-2 36.1 µM | SNB-19 > 100 µM | U-251 59.8 µM

CC1NC(=O)C2=C1C(N)=NC(=O)C2 (configuration not stated)
inactive: A549 > 100 µM | CAKI-1 > 100 µM | COLO 205 > 100 µM | EKVX > 100 µM | HCC 2998 > 100 µM | IGROV-1 > 100 µM | MOLT-4 > 100 µM | NCI-H23 > 100 µM | NCI-H460 > 100 µM | OVCAR-5 > 100 µM | SF-268 > 100 µM | SF-295 > 100 µM | SF-539 > 100 µM | SK-MEL-2 > 100 µM | SNB-19 > 100 µM | U-251 > 100 µM

CCOC(=O)/C=C1\Oc2ccccc2C1(C)O (configuration not stated)
inactive: A549 > 100 µM | CAKI-1 > 100 µM | COLO 205 > 100 µM | EKVX > 100 µM | HCC 2998 > 100 µM | HL-60 > 100 µM | HOP-62 > 100 µM | HT-29 > 100 µM | IGROV-1 > 100 µM | MOLT-4 > 100 µM | NCI-H23 > 100 µM | NCI-H460 > 100 µM | OVCAR-5 > 100 µM | SF-268 > 100 µM | SF-295 > 100 µM | SK-MEL-2 > 100 µM | SNB-19 > 100 µM | U-251 > 100 µM

CC(=O)NC(CCCNC(=O)N(C)N=O)C(=O)NCc1ccccc1 (configuration not stated)
inactive: A549 > 100 µM | CAKI-1 > 100 µM | COLO 205 > 100 µM | EKVX > 100 µM | HCC 2998 > 100 µM | HOP-62 > 100 µM | HT-29 > 100 µM | IGROV-1 > 100 µM | MOLT-4 > 100 µM | NCI-H23 > 100 µM | NCI-H460 > 100 µM | OVCAR-5 > 100 µM | SF-268 > 100 µM | SF-295 > 100 µM | SF-539 > 100 µM | SK-MEL-2 > 100 µM | SNB-19 > 100 µM | U-251 > 100 µM

CCCCCC[N+](C)(C)Cc1ccc(C[N+](C)(C)CCCCCC)cc1
inactive: A549 3.36 µM | CAKI-1 3.19 µM | COLO 205 1.82 µM | EKVX 3.94 µM | HCC 2998 3.84 µM | HL-60 4.33 µM | HOP-62 3.05 µM | HT-29 3.8 µM | IGROV-1 2.54 µM | MOLT-4 1.54 µM | NCI-H23 1.82 µM | NCI-H460 2.64 µM | OVCAR-5 10.9 µM | SF-268 2.79 µM | SF-295 2.79 µM | SK-MEL-2 2.14 µM | SNB-19 5.2 µM | U-251 2.57 µM

CC(=O)n1nnc2ccc([N+](=O)[O-])cc21
inactive: A549 > 100 µM | CAKI-1 > 100 µM | COLO 205 > 100 µM | EKVX > 100 µM | HL-60 > 100 µM | HOP-62 > 100 µM | HT-29 > 100 µM | IGROV-1 > 100 µM | MOLT-4 > 100 µM | NCI-H23 > 100 µM | NCI-H460 > 100 µM | OVCAR-5 > 100 µM | SF-268 > 100 µM | SF-295 > 100 µM | SF-539 > 100 µM | SK-MEL-2 > 100 µM | SNB-19 > 100 µM | U-251 > 100 µM
